Test results from ChEMBL document CHEMBL1201862, “PubChem BioAssay data set” (2004).
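Growth conditions: 96-well plates. Treatment: test compound, 48 hours, 5 concentrations. Analysis: linear interpolation between bracketing concentrations; unreached endpoints set to highest concentration. The concentration for 50% growth inhibition is given as GI50.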 Activity calls are given as the source filed them. Rule as the data show it: active = GI50 up to about 1.1 µM and inactive = higher.

Assays:
Test in all cases: NCI-60 cell line screen, 48 h
[1] = tested on: A549
[2] = tested on: SNB-19
[3] = tested on: SK-MEL-2
[4] = tested on: HL-60
[5] = tested on: IGROV-1
[6] = tested on: SN12C
[7] = tested on: HOP-62
[8] = tested on: UACC-62
[9] = tested on: SNB-75
[10] = tested on: LXFL 529
[11] = tested on: NCI/ADR-RES
[12] = tested on: SF-268
[13] = tested on: PC-3
[14] = tested on: OVCAR-5
[15] = tested on: NCI-H226
[16] = tested on: RXF 393
[17] = tested on: MCF7
[18] = tested on: BT-549
[19] = tested on: MDA-N
[20] = tested on: KM12

SMILES | GI50 [1] | GI50 [2] | GI50 [3] | GI50 [4] | GI50 [5] | GI50 [6] | GI50 [7] | GI50 [8] | GI50 [9] | GI50 [10] | GI50 [11] | GI50 [12] | GI50 [13] | GI50 [14] | GI50 [15] | GI50 [16] | GI50 [17] | GI50 [18] | GI50 [19] | GI50 [20]
Oc1cc(-c2ccc[nH]2)nc2cc3c(cc12)OCO3 | 53.8 µM (inactive) | 37.7 µM (inactive) | 48.3 µM (inactive) | 26.9 µM (inactive) | 33.3 µM (inactive) | 49 µM (inactive) | 17.6 µM (inactive) | 27 µM (inactive) | 13.8 µM (inactive) | 28.4 µM (inactive) |  |  |  |  |  |  |  |  |  | 
COC(=O)C1=C(C(=O)OC)SC2(S1)C(C(=O)OC)=C(C(=O)OC)Sc1c2ssc1=O | 9.66 µM (inactive) | 18.5 µM (inactive) | 1.78 µM (inactive) | 0.016 µM (active) | 1.65 µM (inactive) | 1.19 µM (inactive) | 1.83 µM (inactive) | 0.526 µM (active) | 4.01 µM (inactive) |  | 1 µM (active) | 2.52 µM (inactive) | 1.43 µM (inactive) | 2.11 µM (inactive) | 1.48 µM (inactive) | 1.08 µM (active) | 1.26 µM (inactive) | 1.5 µM (inactive) | 1.66 µM (inactive) | 4.78 µM (inactive)
C=C(C)C12CC3CC/C(=N/O)C(C1)C3(N1CCOCC1)C/C2=N/O (configuration not stated) | > 100 µM (inactive) | > 100 µM (inactive) | > 100 µM (inactive) | > 100 µM (inactive) | > 100 µM (inactive) | > 100 µM (inactive) | > 100 µM (inactive) | > 100 µM (inactive) | > 100 µM (inactive) |  | > 100 µM (inactive) | > 100 µM (inactive) | > 100 µM (inactive) | > 100 µM (inactive) | > 100 µM (inactive) | > 100 µM (inactive) | > 100 µM (inactive) | > 100 µM (inactive) | > 100 µM (inactive) | > 100 µM (inactive)
Nc1c(O)c(C(=O)O)cc2ccccc12 | 45.4 µM (inactive) | > 100 µM (inactive) | 17.7 µM (inactive) | 32.7 µM (inactive) | > 100 µM (inactive) | 38.4 µM (inactive) | > 100 µM (inactive) | 17 µM (inactive) | 24.3 µM (inactive) |  | 32.1 µM (inactive) | 42 µM (inactive) | 39.1 µM (inactive) | 18.9 µM (inactive) | 30.1 µM (inactive) | > 100 µM (inactive) | 11.6 µM (inactive) | 21.3 µM (inactive) | 17.9 µM (inactive) | 40.2 µM (inactive)
O=C(Nc1nnn[nH]1)c1nc(O)cc(-c2ccccc2)n1 | > 100 µM (inactive) | > 100 µM (inactive) | > 100 µM (inactive) | > 100 µM (inactive) | > 100 µM (inactive) | > 100 µM (inactive) | > 100 µM (inactive) | > 100 µM (inactive) | > 100 µM (inactive) | > 100 µM (inactive) |  | > 100 µM (inactive) |  | > 100 µM (inactive) | > 100 µM (inactive) |  |  |  |  | > 100 µM (inactive)
CCOC(=O)C1=C(C)N(NC(N)=O)C2(N)N(NC(N)=O)C(C)=C(C(=O)OCC)C12C(=O)OCC (configuration not stated) | > 100 µM (inactive) | > 100 µM (inactive) | > 100 µM (inactive) |  | > 100 µM (inactive) | > 100 µM (inactive) | > 100 µM (inactive) | > 100 µM (inactive) | 47.8 µM (inactive) | > 100 µM (inactive) |  | > 100 µM (inactive) |  | > 100 µM (inactive) | > 100 µM (inactive) | > 100 µM (inactive) |  |  |  | > 100 µM (inactive)
O=[N+]([O-])c1nccn1COCCBr | > 100 µM (inactive) | > 100 µM (inactive) | > 100 µM (inactive) | > 100 µM (inactive) |  | > 100 µM (inactive) | > 100 µM (inactive) | > 100 µM (inactive) | > 100 µM (inactive) | > 100 µM (inactive) |  | > 100 µM (inactive) |  | > 100 µM (inactive) | > 100 µM (inactive) |  |  |  |  | > 100 µM (inactive)
CCOC(=O)C1(Cc2ccccc2)CCCCCN1 (configuration not stated) | > 100 µM (inactive) |  |  | > 100 µM (inactive) | > 100 µM (inactive) | > 100 µM (inactive) | > 100 µM (inactive) | > 100 µM (inactive) | 32.8 µM (inactive) | > 100 µM (inactive) |  | > 100 µM (inactive) |  |  |  | > 100 µM (inactive) |  |  |  | 
C=C1CC2(CC(c3ccccc3OC)OC(c3ccccc3OC)C2)OC1=O (configuration not stated) | 4.76 µM (inactive) | 7.55 µM (inactive) | 1.91 µM (inactive) | 0.771 µM (active) | 1.74 µM (inactive) | 1.97 µM (inactive) | 13.6 µM (inactive) | 2.18 µM (inactive) | 2.59 µM (inactive) |  | 2.47 µM (inactive) | 2.55 µM (inactive) | 2.06 µM (inactive) | 7.46 µM (inactive) | 8.41 µM (inactive) | 1.81 µM (inactive) | 1.67 µM (inactive) | 1.64 µM (inactive) | 1.83 µM (inactive) | 2.27 µM (inactive)
